One block for each molecule: values may come before it.
Key:
[1] = NO scavenger assessment: direct measurement of nitric oxide with NO-selective microelectrode; format: biochemical; conditions: anaerobic, room temperature, phosphate buffer 50 mM pH 7.4
Description: The nitric oxide (NO) scavenging activity of various compounds was determined by the direct measurement of nitric oxide. Using a NO-selective microelectrode (World Precision Instruments, ISO-NO Mark II) the nitric oxide concentration was monitored upon the addition of the test compound. The reaction rate constant was calculated for each compound. Test compounds were added in molar excess, and therefore pseudo first-order reaction kinetics were observed. The rate constant (ln ks) for each compound was calculated. Reactions were performed under anaerobic conditions at room temperature, in phosphate buffer (50 mM, pH 7.4).

[2] = Solubility in phosphate buffer; format: physicochemical
Description: Synthesis of 1,3-dihydroxy-2-(2-thienyl)-4,4,5,5,-tetramethylimidazolidine (compound 4 where R is compound 4c) was conducted as shown on FIG. 1. Anhydro adduct (compound 3 where R is compound 4c) was synthesized from treatment of 2,3-bis-(hydroxyamino)-2,3-dimetylbutansulfate (compound 1 where R is compound 4c) and 2-thiophenecarboxaldehyde (compound 2 where R is compound 4c) in water and methanol where compound 3 was a stable white solid insoluble in water. Compound 3 was oxidized by lead oxide in chloroform to form blue crystals (compound 4 where R is 4c). […] The nitronyl nitroxide monoradicals (compound 4 where R is compound 4a or 4b) have been tested for nitric oxide scavenge activity as described below in greater detail.

[3] = tested on: anesthetized rats treated with LPS to induce hypotension; assay: Hydroxocobalamin animal study: MAP and HR of anesthetized rats treated with LPS to induce hypotension; format: in vivo, Sprague-Dawley rats
Description: Applicants have conducted a study to assess the effect of hydroxocobalamin on the mean arterial pressure (MAP) and heart rate (HR) of anesthetized rats that had been treated with LPS to induce hypotension as described in greater detail below.
Three male Sprague-Dawley rats were acutely instrumented with femoral arterial and venous catheters. Rats were initially anesthetized using a 60 mg/kg i.p. dose of Nembutal (sodium pentobarbital.) Each rat was then instrumented with one arterial catheter for blood pressure measurement, and two venous catheters for test article administration, and infusion of Nembutal (0.42 mL/kg/hr) for maintenance of surgical anesthesia. After placement of the catheters, rats were moved to plexiglass boxes to begin hemodynamic measurements. Baseline data were collected for 30 minutes prior to experimental manipulation in order to verify that all rats were properly anesthetized, and that baseline MAP and HR were within acceptable baseline ranges. Following baseline data collection, each rat received a 5 mg/kg intravenous dose of LPS at a rate of 1 mL/min. After achieving a sustained hypotension at approximately 60 minutes after the LPS infusion, one rat received a 6 mL/kg intravenous dose of hydroxocobalamin (14.5 mM in PBS) over a period of one hour. The remaining two rats each received a 4.57 mL/kg intravenous dose of saline over a period of one hour. MAP and HR measurements continued for 2 hours after hydroxocobalamin or saline infusion. Following LPS administration, all three rats received a continuous intravenous administration of Lactated Ringer's solution in order to prevent dehydration (2.4 mL/kg/hr). Due to a limited amount of hydroxocobalamin, it was only possible to dose one animal with this compound.

[4] = Stability of the nitronyl nitroxide monoradical on isolation; format: physicochemical; conditions: after oxidation with manganese dioxide in ether and column chromatography
Description: Synthesis of 1,3-Dihydroxy-2-(2,4-dihydroxyphenyl)-4,4,5,5,-tetramethylimidazolidine (compound 4 where R is compound 4a) was conducted as shown in FIG. 1. Anhydro adduct compound 3 where R is compound 4a was synthesized from treatment of 2,3-bis-(hydroxyamino)-2,3-dimetylbutansulfate (compound 1 where R is compound 4a) and 2,4-dihydroxybenzaldehyde (compound 2 where R is compound 4a) in a mixture of water and methanol. The nitronyl nitroxide monoradical (compound 4 where R is compound 4a) was obtained after oxidation of compound 3 (where R is compound 4a) with manganese dioxide in ether. Compound 4 was very unstable where only 2.5 mg of compound 4 was obtained after column chromatography.

Structure (SMILES): C/C1=C2/[N-][C@H]([C@H](CC(N)=O)[C@@]2(C)CCC(=O)NC[C@@H](C)OP(=O)([O-])OC2C(O)[C@@H](n3cnc4cc(C)c(C)cc43)O[C@@H]2CO)[C@]2(C)N=C(/C(C)=C3N=C(/C=C4N=C1[C@@H](CCC(N)=O)C\4(C)C)[C@@H](CCC(N)=O)[C@]\3(C)CC(N)=O)[C@@H](CCC(N)=O)[C@]2(C)CC(N)=O.CC(=O)[O-].[Co+3] (some centres unmarked) [Vitamin B12a (acetate)]
- Rate of NO Scavenging, ln ks ([1]; Molar ratio scavenger to NO 33:1): 3.7
- Rate of NO Scavenging, ln ks ([1]; Molar ratio scavenger to NO 47:1): 3.4
- Rate of NO Scavenging, ln ks ([1]; Molar ratio scavenger to NO 142:1): 3.7
- Rate of NO Scavenging, ln ks ([1]; Molar ratio scavenger to NO 277:1): 3.1

Structure (SMILES): C/C1=C2/[N-][C@H]([C@H](CC(N)=O)[C@@]2(C)CCC(=O)NC[C@@H](C)OP(=O)([O-])O[C@H]2[C@@H](O)[C@@H](n3cnc4cc(C)c(C)cc43)O[C@@H]2CO)[C@]2(C)N=C(/C(C)=C3N=C(/C=C4N=C1[C@@H](CCC(N)=O)C\4(C)C)[C@@H](CCC(N)=O)[C@]\3(C)CC(N)=O)[C@@H](CCC(N)=O)[C@]2(C)CC(N)=O.[Co+3].[OH-] [hydroxocobalamin]
- MAP below baseline levels ([3]; 60-180 minutes post-LPS (5 mg/kg i.v.), 6 mL/kg i.v. of 14.5 mM in PBS over one hour from 60 min post-LPS, one rat): 10-20 mmHg
- survival ([3]; LPS 5 mg/kg i.v., 6 mL/kg i.v. of 14.5 mM in PBS over one hour, one rat, both saline rats died): survived the entire experiment
- effect on HR and MAP (in words) ([3]; anesthetized rat with LPS-induced hypotension, summary): increased HR and allowed MAP to be maintained
- HR above baseline levels ([3]; from 60 minutes post-LPS infusion, 6 mL/kg i.v. of 14.5 mM in PBS over one hour, one rat): approximately 140 bpm

Structure (SMILES): CC1(C)N([O])C(c2ccc(C(=O)O)cc2)=[N+]([O-])C1(C)C [Carboxy-PTIO]
- Rate of NO Scavenging, ln ks ([1]; Molar ratio scavenger to NO 28:1): 3.8
- Rate of NO Scavenging, ln ks ([1]; Molar ratio scavenger to NO 56:1): 3.9
- Rate of NO Scavenging, ln ks ([1]; Molar ratio scavenger to NO 91:1): 3.5
- Rate of NO Scavenging, ln ks ([1]; Molar ratio scavenger to NO 129:1): 3.4

Further lines, with some results ahead:

- solubility in phosphate buffer [2]: soluble in phosphate buffer
Structure (SMILES): CC1(C)N(O)C(c2ccncc2)N(O)C1(C)C [NN-2, 1,3-Dihydroxy-2-(4-pyridyl)-4,4,5,5,-tetramethylimidazolidine]
- Rate of NO Scavenging, ln ks ([1]; Molar ratio scavenger to NO 42:1): 3.7
- Rate of NO Scavenging, ln ks ([1]; Molar ratio scavenger to NO 111:1): 3.4

- solubility in phosphate buffer [2]: soluble in phosphate buffer
- stability [4]: very unstable
Structure (SMILES): CC1(C)N(O)C(c2ccc(O)cc2O)N(O)C1(C)C [4a, 1,3-Dihydroxy-2-(2,4-dihydroxyphenyl)-4,4,5,5,-tetramethylimidazolidine]

- solubility in phosphate buffer [2]: soluble in phosphate buffer
Structure (SMILES): CC1(C)N(O)C(c2cccs2)N(O)C1(C)C [NN-3, 1,3-Dihydroxy-2-(2-thienyl)-4,4,5,5,-tetramethylimidazolidine]
- Rate of NO Scavenging, ln ks ([1]; Molar ratio scavenger to NO 71:1): 2.8
- Rate of NO Scavenging, ln ks ([1]; Molar ratio scavenger to NO 126:1): 2.8

From patent US9511053B2, “Nitric oxide scavengers” (Baxter International Inc., priority 2004, dated 2016)
